Earlier results, collected in patent US8012958B2, “Methods for treating anxiety related disorders” (Hythlam, Inc., priority 2005, dated 2011).
Like-named read-outs stand apart in the source and are kept apart here.

Legend:
[1] = not given; remark: listed apart in the source
[2] = overdose
[3] = IM 2 to 3 mg (0.02 to 0.05 mg/kg); patients 60 years or older without concomitant narcotics
[4] = biological target: T1, monoamine oxidase B (MAO-B) (Homo sapiens, UniProt P27338); conditions: single 300 mg dose
T1 sequence (P27338 1-520): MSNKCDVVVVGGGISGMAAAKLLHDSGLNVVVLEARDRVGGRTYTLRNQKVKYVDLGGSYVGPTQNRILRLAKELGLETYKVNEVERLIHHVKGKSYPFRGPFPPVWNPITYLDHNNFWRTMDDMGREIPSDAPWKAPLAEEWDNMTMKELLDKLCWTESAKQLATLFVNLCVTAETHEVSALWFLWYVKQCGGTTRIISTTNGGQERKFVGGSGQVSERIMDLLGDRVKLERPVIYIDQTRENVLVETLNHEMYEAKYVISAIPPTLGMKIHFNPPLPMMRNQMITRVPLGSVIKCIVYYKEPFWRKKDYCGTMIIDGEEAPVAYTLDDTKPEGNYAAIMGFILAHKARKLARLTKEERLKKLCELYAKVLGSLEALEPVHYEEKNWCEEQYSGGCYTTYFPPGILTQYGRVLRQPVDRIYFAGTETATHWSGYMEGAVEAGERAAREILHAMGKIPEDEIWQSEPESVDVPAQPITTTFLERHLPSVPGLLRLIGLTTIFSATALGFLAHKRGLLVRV

[5] = biological target: T2, monoamine oxidase A (MAO-A) (Homo sapiens, UniProt P21397); conditions: single 300 mg dose
T2 sequence (P21397 1-527): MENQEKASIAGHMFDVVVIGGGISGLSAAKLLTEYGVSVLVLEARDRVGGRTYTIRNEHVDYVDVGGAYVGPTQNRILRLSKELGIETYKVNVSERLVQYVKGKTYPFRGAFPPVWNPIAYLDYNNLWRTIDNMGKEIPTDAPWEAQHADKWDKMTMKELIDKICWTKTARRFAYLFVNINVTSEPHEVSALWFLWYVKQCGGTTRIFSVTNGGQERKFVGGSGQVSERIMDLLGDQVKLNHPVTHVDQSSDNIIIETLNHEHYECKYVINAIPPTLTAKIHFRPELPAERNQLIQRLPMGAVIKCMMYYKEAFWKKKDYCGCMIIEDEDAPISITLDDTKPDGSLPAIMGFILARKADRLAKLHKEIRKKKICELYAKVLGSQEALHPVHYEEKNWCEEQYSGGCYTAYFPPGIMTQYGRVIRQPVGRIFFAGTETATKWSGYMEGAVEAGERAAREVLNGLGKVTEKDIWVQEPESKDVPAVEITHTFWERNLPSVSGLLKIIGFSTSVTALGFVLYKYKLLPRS

[6] = test system: GABAA receptor α4 subunit mRNA; conditions: for amount of α4 subunit mRNA after withdrawal of the drug: withdrawal after long-term exposure
[7] = test system: GABAA receptors that contain α4 or α6 subunits
[8] = test system: GABAA receptors; conditions: 3 μM flumazenil; ethanol withdrawn cells

CCC1(c2ccccc2)C(=O)NC(=O)NC1=O.CNC(C)CC1CCCCC1 [BARBEXACLONE]
dose equivalent to 60 mg of phenobarbital (in vivo): 100 mg of barbexaclone is equivalent to 60 mg of phenobarbital.

CCCCC1(CC)C(=O)NC(=O)NC1=O [BUTOBARBITAL]
dose equivalent to 10 mg of Diazepam (butobarbital): 50 mg of Butobarbital is equivalent to 10 mg of Diazepam; Acc. to

COc1ccc2c3c1O[C@H]1[C@@H](O)C=C[C@H]4[C@@H](C2)N(C)CC[C@@]341 [CODEINE]
dose about equal to 30 mg (oral) of morphine (oral): 200 mg (oral) of codeine is about equal to 30 mg (oral) of morphine.

C[C@]12C=CC(=O)N[C@@H]1CC[C@@H]1[C@@H]2CC[C@]2(C)[C@@H](C(=O)Nc3cc(C(F)(F)F)ccc3C(F)(F)F)CC[C@@H]12 [DUTASTERIDE, (5α,17β)-N-{2,5 bis(trifluoromethyl)phenyl}-3-oxo-4-azaandrost-1-ene-17-carboxamide]
adverse effects compared with therapeutic dose of 0.5 mg ([1]; clinical study, 5 mg daily for 6 months): subjects for 6 months with no additional adverse effects to those

CCCC(C)(COC(N)=O)COC(N)=O [MEPROBROMATE]
ingested amount with which survival has been reported (as much as) [2]: much as 40 g.

Cc1ncc2n1-c1ccc(Cl)cc1C(c1ccccc1F)=NC2 [MIDAZOLAM]
sedation during the preoperative period [3]: (0.02 to 0.05 mg/kg) of VERSED produced adequate sedation

O=C(NCCN1CCOCC1)c1ccc(Cl)cc1 [Moclobemide]
inhibition of monoamine oxidase B (MAO-B) [4]: oxidase A (MAO-A) and 30% of monoamine oxidase B (MAO-B),
inhibition of monoamine oxidase A (MAO-A) [5]: A single 300 mg dose of moclobemide inhibits 80% of monoamine

CC1CN2CC(=O)Nc3ccc(Cl)cc3C2(c2ccccc2)O1 (stereo not shown) [OXAZOLAM]
dose equivalent to 10 mg of Diazepam (oxazolam): 20 mg is equivalent to 10 mg of Diazepam.

CCN(C(C)=O)c1cccc(-c2ccnc3c(C#N)cnn23)c1 [ZALPELON]
amount of α4 subunit mRNA after withdrawal of the drug [6]: marked increase

CN1C(=O)CN=C(c2ccccc2)c2cc(Cl)ccc21 [diazepam]
effect on the ethanol withdrawal-induced increase in abundance of α4 subunit mRNA ([6]; exposure at the time of ethanol withdrawal): antagonizes the withdrawal-induced increase
amount of α4 subunit mRNA after withdrawal of the drug [6]: marked increase
affinity for or efficacy at GABAA receptors that contain α4 or α6 subunits [7]: no affinity for or efficacy

CCOC(=O)c1ncn2c1CN(C)C(=O)c1cc(F)ccc1-2 [flumazenil, ethyl 8-fluoro-5,6-dihydro-5-methyl-6-oxo-4H-imidazo-[1,5-a][1,4]benzodiazepine-3-carboxylate]
modulation of the GABA evoked Cl- current [8]: potentiates the GABA evoked Cl— current
adverse effect on the nervous system ([1]; human, in vivo): causing increased agitation and anxiety

Cc1ccc(-c2nc3ccc(C)cn3c2CC(=O)N(C)C)cc1 [zolpidem]
amount of α4 subunit mRNA after withdrawal of the drug [6]: marked increase
